Measured values published in ChEMBL document CHEMBL1201861, “Genomics of Drug Sensitity in Cancer screening data, Wellcome Trust Sanger Institute”.
pIC50: −log10 of the molar value. Values joined by “and” are separate entries in the source; they are usually repeats but may differ in a detail not shown here. Identical values can stand only once. Where a SMILES comes first, the peptide text is derived from it. The star is where a group is joined. Cbz = O=C(OCc1ccccc1)*

Columns and labels:
NCI-H1417 = assay: cells; type: functional, cell-based, Homo sapiens;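 also: human NCI-H1417 cells, growth inhibition determined with a cell viability readout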
Description: SANGER: Inhibition of human NCI-H1417 cell growth in a cell viability assay.

DMS-79 = assay: cells; type: functional, cell-based, Homo sapiens
Description: SANGER: Inhibition of human DMS-79 cell growth in a cell viability assay.

MC-CAR = assay: cells; type: functional, cell-based, Homo sapiens;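 also: growth inhibition of the human MC-CAR cell line, read out by a cell viability assay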
Description: SANGER: Inhibition of human MC-CAR cell growth in a cell viability assay.

LOUCY = assay: cells; type: functional, cell-based, Homo sapiens;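 also: growth inhibition of human LOUCY cells, read out with a cell viability assay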
Description: SANGER: Inhibition of human LOUCY cell growth in a cell viability assay.

BL-70 = assay: SANGER: Inhibition of human BL-70 cell growth in a cell viability assay.; type: functional, cell-based
TUR = assay: cells; type: functional, cell-based, Homo sapiens;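 also: growth inhibition of human TUR cells, read out with a cell viability assay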
Description: SANGER: Inhibition of human TUR cell growth in a cell viability assay.

DG-75 = assay: cells; type: functional, cell-based, Homo sapiens;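 also: growth inhibition of DG-75 cells, read out with a cell viability assay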
Description: SANGER: Inhibition of human DG-75 cell growth in a cell viability assay.

NCI-H1522 = assay: cells; type: functional, cell-based, Homo sapiens;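 also: growth inhibition of NCI-H1522 cells, read out with a cell viability assay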
Description: SANGER: Inhibition of human NCI-H1522 cell growth in a cell viability assay.

TE-15 = assay: cells; type: functional, cell-based, Homo sapiens;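 also: cell viability readout of growth inhibition in TE-15 cells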
Description: SANGER: Inhibition of human TE-15 cell growth in a cell viability assay.

PF-382 = assay: cells; type: functional, cell-based, Homo sapiens
Description: SANGER: Inhibition of human PF-382 cell growth in a cell viability assay.

ST486 = assay: SANGER: Inhibition of human ST486 cell growth in a cell viability assay.; type: functional, cell-based
NCI-H2141 = assay: cells; type: functional, cell-based, Homo sapiens;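 also: growth inhibition of human NCI-H2141 cells, read out with a cell viability assay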
Description: SANGER: Inhibition of human NCI-H2141 cell growth in a cell viability assay.

LB373-MEL-D = assay: cells; type: functional, cell-based, Homo sapiens;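 also: growth inhibition of the cell line, read out in a cell viability assay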
Description: SANGER: Inhibition of human LB373-MEL-D cell growth in a cell viability assay.

LC4-1 = assay: cells; type: functional, cell-based, Homo sapiens;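 also: growth inhibition of LC4-1 cells, read out with a cell viability assay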
Description: SANGER: Inhibition of human LC4-1 cell growth in a cell viability assay.

BL-41 = assay: cells; type: functional, cell-based; conditions: Homo sapiens;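 also: growth inhibition of human BL-41 cells, read out with a cell viability assay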
Description: SANGER: Inhibition of human BL-41 cell growth in a cell viability assay.

EB2 = assay: cells; type: functional, cell-based, Homo sapiens;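 also: growth inhibition of EB2 cells, read out with a cell viability assay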
Description: SANGER: Inhibition of human EB2 cell growth in a cell viability assay.

NCI-H292 = assay: cells; type: functional, cell-based; conditions: Homo sapiens;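 also: growth inhibition of NCI-H292 cells, read out with a cell viability assay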
Description: SANGER: Inhibition of human NCI-H292 cell growth in a cell viability assay.

LU-99A = assay: cells; type: functional, cell-based; conditions: Homo sapiens;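 also: growth inhibition of LU-99A cells, read out with a cell viability assay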
Description: SANGER: Inhibition of human LU-99A cell growth in a cell viability assay.

CAL-54 = assay: cells; type: functional, cell-based; conditions: Homo sapiens;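 also: growth inhibition of CAL-54 cells, read out by a viability measurement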
Description: SANGER: Inhibition of human CAL-54 cell growth in a cell viability assay.

HCT-116 = assay: cells; type: functional, cell-based; conditions: Homo sapiens
Description: SANGER: Inhibition of human HCT-116 cell growth in a cell viability assay.

NCI-H2228 = assay: cells; type: functional, cell-based; conditions: Homo sapiens;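 also: growth inhibition of human NCI-H2228 cells, read out by a cell viability assay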
Description: SANGER: Inhibition of human NCI-H2228 cell growth in a cell viability assay.

SNU-423 = assay: cells; type: functional, cell-based; conditions: Homo sapiens
Description: SANGER: Inhibition of human SNU-423 cell growth in a cell viability assay.

Ca-Ski = assay: cells; type: functional, cell-based; conditions: Homo sapiens;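 also: cell viability assay measuring inhibition of Ca-Ski cell growth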
Description: SANGER: Inhibition of human Ca-Ski cell growth in a cell viability assay.

CAL-72 = assay: cells; type: functional, cell-based; conditions: Homo sapiens;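 also: cell viability assay measuring inhibition of proliferation in the CAL-72 cell line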
Description: SANGER: Inhibition of human CAL-72 cell growth in a cell viability assay.

OAW-28 = assay: cells; type: functional, cell-based; conditions: Homo sapiens;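 also: growth inhibition of OAW-28 cells, read out with a cell viability assay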
Description: SANGER: Inhibition of human OAW-28 cell growth in a cell viability assay.

RPMI-2650 = assay: cells; type: functional, cell-based; conditions: Homo sapiens
Description: SANGER: Inhibition of human RPMI-2650 cell growth in a cell viability assay.

HT-1080 = assay: cells; type: functional, cell-based; conditions: Homo sapiens
Description: SANGER: Inhibition of human HT-1080 cell growth in a cell viability assay.

CWR22R = assay: cells; type: functional, cell-based; conditions: Homo sapiens, 22Rv1;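 also: growth inhibition of 22Rv1 cells, read out with a cell viability assay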
Description: SANGER: Inhibition of human 22RV1 cell growth in a cell viability assay.

769-P = assay: cells; type: functional, cell-based; conditions: Homo sapiens
Description: SANGER: Inhibition of human 769-P cell growth in a cell viability assay.

CaR-1 = assay: cells; type: functional, cell-based; conditions: Homo sapiens;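 also: growth inhibition of human CaR-1 cancer cells, read out with a cell viability assay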
Description: SANGER: Inhibition of human CaR-1 cell growth in a cell viability assay.

A2780 = assay: cells; type: functional, cell-based; conditions: Homo sapiens;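 also: growth inhibition of A2780 cells, read out with a cell viability assay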
Description: SANGER: Inhibition of human A2780 cell growth in a cell viability assay.

DBTRG-05MG = assay: cells; type: functional, cell-based; conditions: Homo sapiens;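 also: cell viability assay measuring growth inhibition of human DBTRG-05MG cells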
Description: SANGER: Inhibition of human DBTRG-05MG cell growth in a cell viability assay.

CAL-39 = assay: cells; type: functional, cell-based; conditions: Homo sapiens;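 also: cell viability assay measuring growth inhibition of CAL-39 cells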
Description: SANGER: Inhibition of human CAL-39 cell growth in a cell viability assay.

NCI-H2347 = assay: cells; type: functional, cell-based; conditions: Homo sapiens;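 also: growth inhibition of the cell line, read out with a cell viability assay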
Description: SANGER: Inhibition of human NCI-H2347 cell growth in a cell viability assay.

LCLC-97TM1 = assay: cells; type: functional, cell-based; conditions: Homo sapiens;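 also: cell viability assay measuring growth inhibition of human LCLC-97TM1 cells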
Description: SANGER: Inhibition of human LCLC-97TM1 cell growth in a cell viability assay.

VMRC-RCZ = assay: cells; type: functional, cell-based; conditions: Homo sapiens
Description: SANGER: Inhibition of human VMRC-RCZ cell growth in a cell viability assay.

H4 = assay: cells; type: functional, cell-based; conditions: Homo sapiens
Description: SANGER: Inhibition of human H4 cell growth in a cell viability assay.

COR-L23 = assay: cells; type: functional, cell-based; conditions: Homo sapiens;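 also: cell viability assay measuring how strongly compounds suppress growth of COR-L23 cells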
Description: SANGER: Inhibition of human COR-L23 cell growth in a cell viability assay.

HT55 = assay: cells; type: functional, cell-based; conditions: Homo sapiens;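 also: cell viability readout measuring growth inhibition of human HT55 cells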
Description: SANGER: Inhibition of human HT55 cell growth in a cell viability assay.

CAL-12T = assay: cells; type: functional, cell-based; conditions: Homo sapiens;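 also: growth inhibition of human CAL-12T cells, read out with a cell viability assay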
Description: SANGER: Inhibition of human CAL-12T cell growth in a cell viability assay.

SW780 = assay: cells; type: functional, cell-based; conditions: Homo sapiens;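 also: growth inhibition of the cells, read out with a cell viability assay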
Description: SANGER: Inhibition of human SW780 cell growth in a cell viability assay.

RT-112 = assay: cells; type: functional, cell-based; conditions: Homo sapiens
Description: SANGER: Inhibition of human RT-112 cell growth in a cell viability assay.

MCF7 = assay: cells; type: functional, cell-based; conditions: Homo sapiens;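 also: growth inhibition of human MCF7 cells, read out with a cell viability assay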
Description: SANGER: Inhibition of human MCF7 cell growth in a cell viability assay.

SW948 = assay: cells; type: functional, cell-based; conditions: Homo sapiens;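 also: growth inhibition of SW948 cells, read out with a cell viability assay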
Description: SANGER: Inhibition of human SW948 cell growth in a cell viability assay.

Hs-578T = assay: cells; type: functional, cell-based; conditions: Homo sapiens
Description: SANGER: Inhibition of human Hs-578-T cell growth in a cell viability assay.

NCI-H441 = assay: cells; type: functional, cell-based; conditions: Homo sapiens;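 also: growth inhibition of NCI-H441 cells, read out with a cell viability assay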
Description: SANGER: Inhibition of human NCI-H441 cell growth in a cell viability assay.

HT-3 = assay: cells; type: functional, cell-based; conditions: Homo sapiens;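 also: growth inhibition measured with a cell viability readout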
Description: SANGER: Inhibition of human HT-3 cell growth in a cell viability assay.

MIA PaCa-2 = assay: cells; type: functional, cell-based; conditions: Homo sapiens;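 also: growth inhibition of MIA PaCa-2 cells, read out with a cell viability assay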
Description: SANGER: Inhibition of human MIA-PaCa-2 cell growth in a cell viability assay.

OVCAR-3 = assay: cells; type: functional, cell-based; conditions: Homo sapiens;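 also: growth inhibition of human OVCAR-3 cells, determined by a cell viability assay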
Description: SANGER: Inhibition of human OVCAR-3 cell growth in a cell viability assay.

TCC-SUP = assay: cells; type: functional, cell-based; conditions: Homo sapiens;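 also: growth inhibition of TCC-SUP cells, read out with a cell viability assay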
Description: SANGER: Inhibition of human TCCSUP cell growth in a cell viability assay.

SW1463 = assay: cells; type: functional, cell-based; conditions: Homo sapiens;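 also: growth inhibition of SW1463 cells, determined with a cell viability assay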
Description: SANGER: Inhibition of human SW1463 cell growth in a cell viability assay.

SKG-IIIa = assay: cells; type: functional, cell-based; conditions: Homo sapiens;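 also: cell growth inhibition, read out with a cell viability assay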
Description: SANGER: Inhibition of human SKG-IIIa cell growth in a cell viability assay.

SK-MES-1 = assay: cells; type: functional, cell-based; conditions: Homo sapiens;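 also: growth inhibition of human SK-MES-1 cells, read out with a cell viability assay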
Description: SANGER: Inhibition of human SK-MES-1 cell growth in a cell viability assay.

A2058 = assay: cells; type: functional, cell-based; conditions: Homo sapiens;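 also: reduction of A2058 cell growth, read out with a viability assay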
Description: SANGER: Inhibition of human A2058 cell growth in a cell viability assay.

In the case of `NC(=O)c1cccc(-c2cc(Nc3ccc(OC(F)(F)F)cc3)ncn2)c1`, the pIC50 (NCI-H1417; Homo sapiens, NCI-H1417) was < 5.89, the pIC50 (DMS-79; Homo sapiens, DMS-79) was < 5.89 and the pIC50 (MC-CAR; Homo sapiens, MC-CAR) was < 5.89. The pIC50 (LOUCY; Homo sapiens, LOUCY) was < 5.89, the pIC50 (BL-70; Homo sapiens, BL-70) was < 5.89 and the pIC50 (TUR; Homo sapiens, TUR) was < 5.89. For the same compound, the pIC50 (DG-75; Homo sapiens, DG-75) was < 5.89, the pIC50 (NCI-H1522; Homo sapiens, NCI-H1522) was < 5.89 and the pIC50 (TE-15; Homo sapiens, TE-15) was < 5.89. The pIC50 (PF-382; Homo sapiens, PF-382) was < 5.89, the pIC50 (ST486; Homo sapiens, ST486) was < 5.89 and the pIC50 (NCI-H2141; Homo sapiens, NCI-H2141) was < 5.89. For the same compound, the pIC50 (LB373-MEL-D; Homo sapiens, LB373-MEL-D) was < 5.89, the pIC50 (LC4-1; Homo sapiens, LC4-1) was < 5.89 and the pIC50 (BL-41) was < 5.89. The pIC50 (EB2; Homo sapiens, EB2) was < 5.89.
For `CC(C)C[C@@H](C=O)NC(=O)[C@H](CC(C)C)NC(=O)[C@H](CC(C)C)NC(=O)OCc1ccccc1` [MG-132] (Cbz-Leu-Leu-Leu-aldehyde), the pIC50 (NCI-H1417; nci-h1417) was < 6.00, the pIC50 (DMS-79; dms-79) was < 6.00 and the pIC50 (MC-CAR; mc-car) was < 6.00. For the same compound, the pIC50 (LOUCY; loucy) was 6.59 and < 6.00, the pIC50 (BL-70; bl-70) was 6.16 and < 6.00 and the pIC50 (TUR; tur) was < 6.00. The pIC50 (DG-75; Homo sapiens, DG-75) was < 6.00, the pIC50 (DG-75; dg-75) was < 6.00 and the pIC50 (NCI-H1522; nci-h1522) was < 6.00. The pIC50 (TE-15; te-15) was < 6.00, the pIC50 (PF-382; pf-382) was 6.78 and 6.23 and the pIC50 (ST486; Homo sapiens, ST486) was < 6.00. The pIC50 (ST486; st486) was < 6.00, the pIC50 (NCI-H2141; nci-h2141) was < 6.00 and the pIC50 (LB373-MEL-D; lb373-mel-d) was 6.62 and < 6.00. For the same compound, the pIC50 (LC4-1; Homo sapiens, LC4-1) was 6.36, the pIC50 (LC4-1; lc4-1) was 6.13 and the pIC50 (EB2; eb2) was < 6.00.
For `NC1(c2ccc(-c3nc4ccn5c(=O)[nH]nc5c4cc3-c3ccccc3)cc2)CCC1` [MK-2206], the pIC50 (NCI-H292) was < 5.40, the pIC50 (LU-99A) was < 5.40 and the pIC50 (CAL-54) was 5.77. For the same compound, the pIC50 (HCT-116) was < 5.40, the pIC50 (NCI-H2228) was 5.64 and the pIC50 (SNU-423) was 5.54. For the same compound, the pIC50 (Ca-Ski) was < 5.40, the pIC50 (CAL-72) was < 5.40 and the pIC50 (OAW-28) was 5.64. The pIC50 (RPMI-2650) was < 5.40, the pIC50 (HT-1080) was < 5.40 and the pIC50 (CWR22R) was < 5.40. The pIC50 (769-P) was < 5.40, the pIC50 (CaR-1) was < 5.40 and the pIC50 (A2780) was < 5.40. For the same compound, the pIC50 (DBTRG-05MG) was < 5.40, the pIC50 (CAL-39) was < 5.40 and the pIC50 (NCI-H2347) was < 5.40. For the same compound, the pIC50 (LCLC-97TM1) was < 5.40, the pIC50 (VMRC-RCZ) was < 5.40 and the pIC50 (H4) was 5.46. The pIC50 (COR-L23) was < 5.40, the pIC50 (HT55) was < 5.40 and the pIC50 (CAL-12T) was < 5.40. For the same compound, the pIC50 (SW780) was < 5.40, the pIC50 (RT-112) was 5.45 and the pIC50 (MCF7) was 5.54. For the same compound, the pIC50 (SW948) was < 5.40, the pIC50 (Hs-578T) was 5.67 and the pIC50 (NCI-H441) was < 5.40. The pIC50 (HT-3) was < 5.40, the pIC50 (MIA PaCa-2) was < 5.40 and the pIC50 (OVCAR-3) was 5.47. The pIC50 (TCC-SUP) was < 5.40, the pIC50 (SW1463) was < 5.40 and the pIC50 (SKG-IIIa) was < 5.40. The pIC50 (SK-MES-1) was < 5.40.
In the case of `CN(C)CCOc1ccc(-c2nc(-c3ccncc3)c(-c3ccc4c(c3)CC/C4=N\O)[nH]2)cc1` [SB590885], the pIC50 (NCI-H292) was 5.36, the pIC50 (LU-99A) was < 5.30 and the pIC50 (CAL-54) was < 5.30. For the same compound, the pIC50 (HCT-116) was < 5.30, the pIC50 (NCI-H2228) was < 5.30 and the pIC50 (SNU-423) was < 5.30. For the same compound, the pIC50 (Ca-Ski) was < 5.30, the pIC50 (CAL-72) was < 5.30 and the pIC50 (OAW-28) was < 5.30. The pIC50 (RPMI-2650) was < 5.30, the pIC50 (HT-1080) was < 5.30 and the pIC50 (CWR22R) was < 5.30. The pIC50 (769-P) was < 5.30, the pIC50 (CaR-1) was < 5.30 and the pIC50 (A2780) was < 5.30. The pIC50 (DBTRG-05MG) was 5.45, the pIC50 (CAL-39) was < 5.30 and the pIC50 (NCI-H2347) was < 5.30. The pIC50 (LCLC-97TM1) was < 5.30, the pIC50 (VMRC-RCZ) was < 5.30 and the pIC50 (H4) was < 5.30. The pIC50 (COR-L23) was < 5.30, the pIC50 (HT55) was < 5.30 and the pIC50 (CAL-12T) was < 5.30. For the same compound, the pIC50 (SW780) was < 5.30, the pIC50 (RT-112) was < 5.30 and the pIC50 (MCF7) was < 5.30. For the same compound, the pIC50 (SW948) was < 5.30, the pIC50 (Hs-578T) was < 5.30 and the pIC50 (A2058) was < 5.30. For the same compound, the pIC50 (NCI-H441) was < 5.30, the pIC50 (HT-3) was < 5.30 and the pIC50 (MIA PaCa-2) was < 5.30. The pIC50 (OVCAR-3) was < 5.30, the pIC50 (TCC-SUP) was < 5.30 and the pIC50 (SW1463) was < 5.30. For the same compound, the pIC50 (SKG-IIIa) was < 5.30 and the pIC50 (SK-MES-1) was < 5.30.
